Results: patent publication US6747036B2, “Methods of treating leukemia” (BioChem Pharma Inc., priority 1999, dated 2004)

Experiments:
[1] = tested on: Human Leukemia (HL60) xenograft; experiment: β-L-OddC/doxorubicin combination study in a human leukemia (HL60) xenograft survival model; assay type: in vivo, female SCID mice; conditions: start day 10
Procedure: β-L-OddC/doxorubicin Combination Study in a Human Leukemia (HL60) Xenograft Model
A study was conducted to evaluate the synergistic or additive therapeutic effect of β-L-OddC in combination with the currently known anticancer agent Doxorubicin. The model that was utilized is a survival model consisting of female SCID mice which are inoculated in the abdomen region (i.p.) with 15×10^6 HL60 cells in log phase growth. This corresponds to day 0 of the experiment. Administration of anti-cancer drug is started 10 days after tumor cell inoculation.
10 animals were used per group for β-L-oddC alone, Doxorubicin alone and the combination of β-L-oddC with Doxorubicin. Each groups received the drugs alone or in combination intraperitoneal once daily for 5 consecutive days.
Augmentation of survival time was calculated by substracting from the median survival time of group two to six, which corresponds to the day when the fifth mouse dies, the median survival time of control group 1 and multiplying by 100.

advanced leukemia = experiment: Evaluation of β-L-oddC in patients with advanced leukemia previously treated with Ara-C; assay type: in vivo, human; conditions: twelve patients treated; 30 min daily infusion for 5 consecutive days; responders 2 each at 1.08 and 1.62 mg/m2; three AML, one CML
Procedure: Evaluation of β-L-oddC in Patients with Advanced Leukemia.
The study involved treatment of patients with advanced leukemia that had been previously treated with Citarabine (Ara-C). […] Twelve patients were treated with an initial course at daily doses of 0.72 mg/m2 (4 patients), 1.08 mg/m^2 (5 patients), 1.62 mg/m^2 (3 patients) given as a daily infusion over 30 minutes for 5 consecutive days. Five patients were treated with second courses at daily doses of 1.08 mg/m^2 (3 patients), 1.62 mg/m^2 (2 patients) given over 5 consecutive days as above. 1 patient was treated with a 3rd 5 day course at the 2.43 mg/m^2 daily dose level. 4 patients (2 each at the 1.08 mg/m^2 and 1,62 mg/m^2 levels) have shown a transient decrease in peripheral blood and bone marrow blasts. Of these four patients, three had acute mylogenous leukemia and one had chronic mylogenous leukemia.

| Compound | Augmentation Survival Time ([1]; Doxorubicin 0.2 mg/kg i.p. once daily for 5 days) [%] | Augmentation Survival Time ([1]; Doxorubicin 2 mg/kg i.p. once daily for 5 days) [%] | Augmentation Survival Time ([1]; β-L-OddC 1 mg/kg i.p. once daily for 5 days) [%] | patients showing a transient decrease in peripheral blood and bone marrow blasts (advanced leukemia) [patients] |
| --- | --- | --- | --- | --- |
| COc1cccc2c1C(=O)c1c(O)c3c(c(O)c1C2=O)C[C@@](O)(C(=O)CO)C[C@@H]3O[C@H]1C[C@H](N)[C@H](O)[C@H](C)O1 [Doxorubicin] | 25 | 50 |  |  |
| Nc1ccn([C@@H]2CO[C@H](CO)O2)c(=O)n1 [β-L-OddC, (−)-β-L-Dioxolane-Cytidine] |  |  | 55 | 4 |
